The values that follow come from patent publication US20120041019A1, “PROTEASE INHIBITORS” (priority 2008, published 2012).

Read-outs that look alike come from different tables or passages of the source.

In one experiment the test system is HIV-1LAI. Put plainly: Cell infectivity assay (HIV-1LAI infection of CEM-T4 cells, p24 readout). It counts as cell-based. The settings on record: for IC50: Human immunodeficiency virus 1, CEM-T4 cells infected with HIV-1LAI, read-out: HIV PI IC50 (nM) (Cell Infectivity Assay); for loss in potency between cell free assay experiments and cell infectivity assay experiments: comparison of cell free and cell infectivity IC50. How it is done:
Procedure—cell infectivity assay. The T-cell-tropic strain HIV-1LAI was used to infect CEM-T4 cells over a dose range of the protease inhibitor compounds. CEM-T4 cells were grown in RPMI 1640 medium supplemented with 10% heat-inactivated fetal bovine serum, penicillin (100 units/mL), streptomycin (100 ug/mL), and polybrene (2 ug/mL) at 37° C. with 5% CO2. The PI dose range covered a total of nine 3:1 dilutions from 5000 nM to less than 1 nM. The tittered virus was added to wells of CEM cells (pre-treated with protease inhibitor [PI] dilution series for 1 h) at a low multiplicity of infection (MOI=0.01) and incubated for 4 h at 37° C. The cells then were washed three times with PBS (GIBCO/BRL), resuspended in triplicate wells each with 1 ml of culture medium containing the same concentration of PI as the initial pre-incubation and further incubated at 37° C. in 5% CO2. Each well of the 24-well plate contains 1×10̂5 cells upon incubation initiation. The cells were fed every two days with fresh PI at the appropriate concentration. Samples were scored for cytopathic effect on day 4, and if consistent CPE was seen throughout the various wells, the supernatants was collected for p24 assay. Otherwise, the cultures were maintained with feeding every other day until day 8, at which point the p24 were initiated.

The target in the next experiment is T1, HIV-1 Protease (Human immunodeficiency virus type 1 group M subtype B, UniProt P04585).
T1 construct: SensoLyte™ 490 HIV-1 Protease Assay Kit
Put plainly: Cell free assay (SensoLyte 490 HIV-1 Protease Assay Kit). It counts as biochemical. Here is the method:
Procedure—cell free assay. The cell free assays were conducted according to the test kit protocol provided with the SensoLyte™ 490 HIV-1 Protease Assay Kit, available from AnaSpec (San Jose, Calif.).

Setting [1] is: Table 2 Activity Data, read-out: HIV PI IC50 (nM) (Cell-Free Assay).

As for `CC(C)CN(C[C@@H](O)[C@H](Cc1ccccc1)NC(=O)O[C@H]1CCOC1)S(=O)(=O)c1ccc(N)cc1` [Amprenavir, amprenavir, reference compound], in the experiment on HIV-1LAI, the IC50 stood at 171 nM; the “loss in potency between cell free assay experiments and cell infectivity assay experiments” value is “significant loss of potency”.
In the case of `CCC(C)(C)C(=O)C(=O)N1CCCCC1C(=O)OC(CCc1ccc(OC)c(OC)c1)c1cccc(OCC(=O)NCCCOC(=O)NC(Cc2ccccc2)C(O)CN(CC(C)C)S(=O)(=O)c2ccc([N+](=O)[O-])cc2)c1` (stereo not drawn) [Compound A1], the 50% inhibitory concentration (IC50) at HIV-1 Protease (setting [1]) was determined as 24 nM.
The same measure, in the same setting: under `CCC(C)(C)C(=O)C(=O)N1CCCCC1C(=O)OC(CCc1ccc(OC)c(OC)c1)c1cccc(OCC(=O)NCCCOC(=O)NC(Cc2ccccc2)C(O)CN(CC(C)C)S(=O)(=O)c2ccc(N)cc2)c1` (stereo not drawn) [Compound A2] stands 7.3 nM; under `CCC(C)(C)C(=O)C(=O)N1CCCCC1C(=O)OC(CCc1ccc(OC)c(OC)c1)c1cccc(OCCNC(=O)CCCOC(=O)NC(Cc2ccccc2)C(O)CN(CC(C)C)S(=O)(=O)c2ccc([N+](=O)[O-])cc2)c1` (stereo not drawn) [Compound A3], 11.5 nM.
Still for that read-out and setting: under `CCC(C)(C)C(=O)C(=O)N1CCCCC1C(=O)OC(CCc1ccc(OC)c(OC)c1)c1cccc(OCC(=O)NCCCOC(=O)NC(Cc2ccccc2)C(O)CN(CC(C)C)S(=O)(=O)c2ccc(OC)cc2)c1` (stereo not drawn) [Compound A4] stands 8.4 nM.
Take `CCC(C)(C)C(=O)C(=O)N1CCCCC1C(=O)OC(CCc1ccc(OC)c(OC)c1)c1cccc(OCC(=O)NC(C(=O)NC(Cc2ccccc2)C(O)CN(CC(C)C)S(=O)(=O)c2ccc(N)cc2)C(C)C)c1` (stereo not drawn) [Compound A5]: the 50% inhibitory concentration (IC50) on HIV-1 Protease turned out to be 7.9 nM. Further, in the experiment on HIV-1LAI, the IC50 came to 3.3 nM; the “loss in potency between cell free assay experiments and cell infectivity assay experiments” value is given as “little or no loss in potency”.
With `CCC(C)(C)C(=O)C(=O)N1CCCCC1C(=O)OC(CCc1ccc(OC)c(OC)c1)c1cccc(OCCNC(=O)CCCOC(=O)NC(Cc2ccccc2)C(O)CN(CC(C)C)S(=O)(=O)c2ccc(N)cc2)c1` (stereo not drawn) [Compound A6], on HIV-1 Protease (setting [1]), the IC50 worked out at 5.6 nM.
With `CCC(C)(C)C(=O)C(=O)N1CCCCC1C(=O)OC(CCc1ccc(OC)c(OC)c1)c1cccc(OCC(=O)NC(CC(N)=O)C(=O)NC(Cc2ccccc2)C(CN(CC(C)C)S(=O)(=O)c2ccc(N)cc2)OC)c1` (stereo not drawn) [Compound A7], the IC50 at HIV-1 Protease was 6.6 nM. In the experiment on HIV-1LAI, the IC50 came to 14 nM; the “loss in potency between cell free assay experiments and cell infectivity assay experiments” value is on record as “little or no loss in potency”.
As for `CCC(C)(C)C(=O)C(=O)N1CCCC[C@H]1C(=O)O[C@H](CCc1ccc(OC)c(OC)c1)c1cccc(NC(=O)CCC(=O)N[C@@H](Cc2ccccc2)[C@H](O)CC(CC(C)C)S(=O)(=O)c2ccc([N+](=O)[O-])cc2)c1` (stereo partly drawn) [Compound A8], at HIV-1 Protease (assay not named, follows the cell free data of Table 2, read-out: IC50 value), the IC50 stood at 339 nM.
In the case of `CCC(C)(C)C(=O)C(=O)N1CCCCC1C(=O)OC(CCc1ccc(OC)c(OC)c1)c1cccc(OCCNC(=O)NC(CC(N)=O)C(=O)NC(Cc2ccccc2)C(CN(CC(C)C)S(=O)(=O)c2ccc(N)cc2)OC)c1` (stereo not drawn) [Compound A9], the IC50 against HIV-1 Protease was found to be 1.8 nM. Further, in the experiment on HIV-1LAI, the IC50 turned out to be 2.3 nM; the “loss in potency between cell free assay experiments and cell infectivity assay experiments” value is listed as “little or no loss in potency”.
Take `CCC(C)(C)C(=O)C(=O)N1CCCCC1C(=O)OC(CCc1ccc(OC)c(OC)c1)c1cccc(OCCNC(=O)NC(C(=O)NC(Cc2ccccc2)C(O)CN(CC(C)C)S(=O)(=O)c2ccc(N)cc2)C(C)C)c1` (stereo not drawn) [Compound A10]: the results for the IC50 at HIV-1 Protease and in the experiment on HIV-1LAI were 3.9 nM and 48.1 nM, respectively.
As for `CCC(C)(C)C(=O)C(=O)N1CCCCC1C(=O)OC(CCc1ccc(OC)c(OC)c1)c1cccc(OCCNC(=O)COCC2OCCC2OC(=O)NC(Cc2ccccc2)C(O)CN(CC(C)C)S(=O)(=O)c2ccc(N)cc2)c1` (stereo not drawn) [Compound A13], the IC50 at HIV-1 Protease (setting [1]) is 51 nM.
On the same count and under the same terms, the same measure for `CCC(C)(C)C(=O)C(=O)N1CCCCC1C(=O)OC(CCc1ccc(OC)c(OC)c1)c1cccc(OCC(=O)NC(CC(N)=O)C(=O)NC(Cc2ccccc2)C(O)CN(CC(C)C)S(=O)(=O)c2ccc(N)cc2)c1` (stereo not drawn) [Compound A14]: 3.5 nM.
For `Cc1cccc(C)c1OCC(=O)N[C@@H](Cc1ccccc1)[C@@H](O)C[C@H](Cc1ccccc1)NC(=O)[C@H](C(C)C)N1CCCNC1=O` [Lopinavir, lopinavir, reference compound], the IC50 at HIV-1 Protease (Table 1 Activity data, read-out: HIV PI IC50 (nM) (Cell free assay)) worked out at 0.9 nM; in the experiment on HIV-1LAI, 18.9 nM. The “loss in potency between cell free assay experiments and cell infectivity assay experiments” value in the experiment with HIV-1LAI is listed as “significant loss of potency”.

The term IC50 denotes the concentration that gives 50% inhibition.
